{
  "source": "patent US8192962B2",
  "about": "“Processes for detecting toxic substances” (Daikin Industries, Ltd., priority 2001, dated 2012)",
  "test_system": "Mitochondria-located protein genes",
  "experiment": "DNA chip mRNA expression in yeast, mitochondria-located protein genes (Table 2)",
  "format": "cell-based, Saccharomyces cerevisiae S288C",
  "settings": "cells incubated two hours with the chemical substance",
  "method_in_brief": "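Ratios compare mRNA levels in stressed and control S. cerevisiae. Each toxicant was applied for two hours to log-phase cultures at 25° C. at a sub-lethal, growth-inhibiting level; fluorescent cDNA (Cy3- or Cy5-dUTP) was hybridized to a genome-wide yeast chip for over 12 h at 65° C.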",
  "data": [
    {"smiles": "[Cl][Cd][Cl]", "note": "[(2), CdCl2]", "values": [
      {"measurement": "The level of expressed mRNA in the presence of chemical substance/The level of expressed mRNA in the absence of chemical substance", "setting": "yeast gene YAL039C", "result": 2.2},
      {"measurement": "The level of expressed mRNA in the presence of chemical substance/The level of expressed mRNA in the absence of chemical substance", "setting": "yeast gene YBL022C", "result": 0.8},
      {"measurement": "The level of expressed mRNA in the presence of chemical substance/The level of expressed mRNA in the absence of chemical substance", "setting": "yeast gene YBL030C", "result": 0.9},
      {"measurement": "The level of expressed mRNA in the presence of chemical substance/The level of expressed mRNA in the absence of chemical substance", "setting": "yeast gene YBL038W", "result": 0.9},
      {"measurement": "The level of expressed mRNA in the presence of chemical substance/The level of expressed mRNA in the absence of chemical substance", "setting": "yeast gene YBL099W", "result": 0.9},
      {"measurement": "The level of expressed mRNA in the presence of chemical substance/The level of expressed mRNA in the absence of chemical substance", "setting": "yeast gene YBR003W", "result": 0.8},
      {"measurement": "The level of expressed mRNA in the presence of chemical substance/The level of expressed mRNA in the absence of chemical substance", "setting": "yeast gene YBR044C", "result": 1.4},
      {"measurement": "The level of expressed mRNA in the presence of chemical substance/The level of expressed mRNA in the absence of chemical substance", "setting": "yeast gene YBR091C", "result": 1.0},
      {"measurement": "The level of expressed mRNA in the presence of chemical substance/The level of expressed mRNA in the absence of chemical substance", "setting": "yeast gene YBR122C", "result": 0.9},
      {"measurement": "The level of expressed mRNA in the presence of chemical substance/The level of expressed mRNA in the absence of chemical substance", "setting": "yeast gene YBR185C", "result": 1.0},
      {"measurement": "The level of expressed mRNA in the presence of chemical substance/The level of expressed mRNA in the absence of chemical substance", "setting": "yeast gene YBR221C", "result": 0.7},
      {"measurement": "The level of expressed mRNA in the presence of chemical substance/The level of expressed mRNA in the absence of chemical substance", "setting": "yeast gene YBR251W", "result": 0.9},
      {"measurement": "The level of expressed mRNA in the presence of chemical substance/The level of expressed mRNA in the absence of chemical substance", "setting": "yeast gene YBR282W", "result": 1.0},
      {"measurement": "The level of expressed mRNA in the presence of chemical substance/The level of expressed mRNA in the absence of chemical substance", "setting": "yeast gene YCL057W", "result": 1.5},
      {"measurement": "The level of expressed mRNA in the presence of chemical substance/The level of expressed mRNA in the absence of chemical substance", "setting": "yeast gene YCR046C", "result": 1.2},
      {"measurement": "The level of expressed mRNA in the presence of chemical substance/The level of expressed mRNA in the absence of chemical substance", "setting": "yeast gene YCR083W", "result": 2.8},
      {"measurement": "The level of expressed mRNA in the presence of chemical substance/The level of expressed mRNA in the absence of chemical substance", "setting": "yeast gene YDL067C", "result": 1.0},
      {"measurement": "The level of expressed mRNA in the presence of chemical substance/The level of expressed mRNA in the absence of chemical substance", "setting": "yeast gene YDL181W", "result": 1.8},
      {"measurement": "The level of expressed mRNA in the presence of chemical substance/The level of expressed mRNA in the absence of chemical substance", "setting": "yeast gene YDL198C", "result": 1.0},
      {"measurement": "The level of expressed mRNA in the presence of chemical substance/The level of expressed mRNA in the absence of chemical substance", "setting": "yeast gene YDR079W", "result": 1.1},
      {"measurement": "The level of expressed mRNA in the presence of chemical substance/The level of expressed mRNA in the absence of chemical substance", "setting": "yeast gene YDR178W", "result": 2.0},
      {"measurement": "The level of expressed mRNA in the presence of chemical substance/The level of expressed mRNA in the absence of chemical substance", "setting": "yeast gene YDR231C", "result": 1.6},
      {"measurement": "The level of expressed mRNA in the presence of chemical substance/The level of expressed mRNA in the absence of chemical substance", "setting": "yeast gene YDR258C", "result": 2.3},
      {"measurement": "The level of expressed mRNA in the presence of chemical substance/The level of expressed mRNA in the absence of chemical substance", "setting": "yeast gene YDR298C", "result": 1.2},
      {"measurement": "The level of expressed mRNA in the presence of chemical substance/The level of expressed mRNA in the absence of chemical substance", "setting": "yeast gene YDR347W", "result": 0.8},
      {"measurement": "The level of expressed mRNA in the presence of chemical substance/The level of expressed mRNA in the absence of chemical substance", "setting": "yeast gene YDR377W", "result": 1.1},
      {"measurement": "The level of expressed mRNA in the presence of chemical substance/The level of expressed mRNA in the absence of chemical substance", "setting": "yeast gene YDR529C", "result": 1.0},
      {"measurement": "The level of expressed mRNA in the presence of chemical substance/The level of expressed mRNA in the absence of chemical substance", "setting": "yeast gene YEL024W", "result": 0.9},
      {"measurement": "The level of expressed mRNA in the presence of chemical substance/The level of expressed mRNA in the absence of chemical substance", "setting": "yeast gene YEL039C", "result": 0.7},
      {"measurement": "The level of expressed mRNA in the presence of chemical substance/The level of expressed mRNA in the absence of chemical substance", "setting": "yeast gene YER178W", "result": 0.9},
      {"measurement": "The level of expressed mRNA in the presence of chemical substance/The level of expressed mRNA in the absence of chemical substance", "setting": "yeast gene YFL016C", "result": 1.0},
      {"measurement": "The level of expressed mRNA in the presence of chemical substance/The level of expressed mRNA in the absence of chemical substance", "setting": "yeast gene YGL018C", "result": 1.0},
      {"measurement": "The level of expressed mRNA in the presence of chemical substance/The level of expressed mRNA in the absence of chemical substance", "setting": "yeast gene YGL187C", "result": 0.8},
      {"measurement": "The level of expressed mRNA in the presence of chemical substance/The level of expressed mRNA in the absence of chemical substance", "setting": "yeast gene YGL191W", "result": 1.6},
      {"measurement": "The level of expressed mRNA in the presence of chemical substance/The level of expressed mRNA in the absence of chemical substance", "setting": "yeast gene YGR008C", "result": 3.0},
      {"measurement": "The level of expressed mRNA in the presence of chemical substance/The level of expressed mRNA in the absence of chemical substance", "setting": "yeast gene YGR028W", "result": 3.5},
      {"measurement": "The level of expressed mRNA in the presence of chemical substance/The level of expressed mRNA in the absence of chemical substance", "setting": "yeast gene YGR062C", "result": 1.0},
      {"measurement": "The level of expressed mRNA in the presence of chemical substance/The level of expressed mRNA in the absence of chemical substance", "setting": "yeast gene YGR076C", "result": 1.6},
      {"measurement": "The level of expressed mRNA in the presence of chemical substance/The level of expressed mRNA in the absence of chemical substance", "setting": "yeast gene YGR082W", "result": 0.9},
      {"measurement": "The level of expressed mRNA in the presence of chemical substance/The level of expressed mRNA in the absence of chemical substance", "setting": "yeast gene YGR174C", "result": 1.6},
      {"measurement": "The level of expressed mRNA in the presence of chemical substance/The level of expressed mRNA in the absence of chemical substance", "setting": "yeast gene YGR244C", "result": 1.2},
      {"measurement": "The level of expressed mRNA in the presence of chemical substance/The level of expressed mRNA in the absence of chemical substance", "setting": "yeast gene YHR008C", "result": 5.4},
      {"measurement": "The level of expressed mRNA in the presence of chemical substance/The level of expressed mRNA in the absence of chemical substance", "setting": "yeast gene YIL155C", "result": 0.7},
      {"measurement": "The level of expressed mRNA in the presence of chemical substance/The level of expressed mRNA in the absence of chemical substance", "setting": "yeast gene YJL096W", "result": 1.0},
      {"measurement": "The level of expressed mRNA in the presence of chemical substance/The level of expressed mRNA in the absence of chemical substance", "setting": "yeast gene YJL102W", "result": 0.7},
      {"measurement": "The level of expressed mRNA in the presence of chemical substance/The level of expressed mRNA in the absence of chemical substance", "setting": "yeast gene YJL133W", "result": 1.0},
      {"measurement": "The level of expressed mRNA in the presence of chemical substance/The level of expressed mRNA in the absence of chemical substance", "setting": "yeast gene YJL166W", "result": 1.5},
      {"measurement": "The level of expressed mRNA in the presence of chemical substance/The level of expressed mRNA in the absence of chemical substance", "setting": "yeast gene YJL180C", "result": 1.6},
      {"measurement": "The level of expressed mRNA in the presence of chemical substance/The level of expressed mRNA in the absence of chemical substance", "setting": "yeast gene YJR045C", "result": 1.9},
      {"measurement": "The level of expressed mRNA in the presence of chemical substance/The level of expressed mRNA in the absence of chemical substance", "setting": "yeast gene YJR077C", "result": 1.1}
    ]}
  ]
}
